This note sets out measurements from patent publication US20230024096A1, “BIFUNCTIONAL COMPOUNDS FOR THE TREATMENT OF CANCER” (Hoffmann-La Roche Inc., priority 2019, published 2023).

The assay addresses T1, SMARCA2 (Homo sapiens, UniProt P51531).
T1 construct: endogenous in cells; host or cells: HT1080 (CRISPR HiBiT knock-in clone, generated in house)
Kind of assay: SMARCA2 HiBiT degradation assay (cellular). The class given is cell-based. The following applies: table head names A549; for DC50: 6 h incubation, HiBiT-tagged SMARCA2, luminescence read-out, read-out: HiBit A549 SMARCA2 IP (nM) 6 h; for Emax: A549, 6 h incubation, Emax = amount of residual protein remaining in the cell following compound treatment.

T1 sequence (P51531 whole entry): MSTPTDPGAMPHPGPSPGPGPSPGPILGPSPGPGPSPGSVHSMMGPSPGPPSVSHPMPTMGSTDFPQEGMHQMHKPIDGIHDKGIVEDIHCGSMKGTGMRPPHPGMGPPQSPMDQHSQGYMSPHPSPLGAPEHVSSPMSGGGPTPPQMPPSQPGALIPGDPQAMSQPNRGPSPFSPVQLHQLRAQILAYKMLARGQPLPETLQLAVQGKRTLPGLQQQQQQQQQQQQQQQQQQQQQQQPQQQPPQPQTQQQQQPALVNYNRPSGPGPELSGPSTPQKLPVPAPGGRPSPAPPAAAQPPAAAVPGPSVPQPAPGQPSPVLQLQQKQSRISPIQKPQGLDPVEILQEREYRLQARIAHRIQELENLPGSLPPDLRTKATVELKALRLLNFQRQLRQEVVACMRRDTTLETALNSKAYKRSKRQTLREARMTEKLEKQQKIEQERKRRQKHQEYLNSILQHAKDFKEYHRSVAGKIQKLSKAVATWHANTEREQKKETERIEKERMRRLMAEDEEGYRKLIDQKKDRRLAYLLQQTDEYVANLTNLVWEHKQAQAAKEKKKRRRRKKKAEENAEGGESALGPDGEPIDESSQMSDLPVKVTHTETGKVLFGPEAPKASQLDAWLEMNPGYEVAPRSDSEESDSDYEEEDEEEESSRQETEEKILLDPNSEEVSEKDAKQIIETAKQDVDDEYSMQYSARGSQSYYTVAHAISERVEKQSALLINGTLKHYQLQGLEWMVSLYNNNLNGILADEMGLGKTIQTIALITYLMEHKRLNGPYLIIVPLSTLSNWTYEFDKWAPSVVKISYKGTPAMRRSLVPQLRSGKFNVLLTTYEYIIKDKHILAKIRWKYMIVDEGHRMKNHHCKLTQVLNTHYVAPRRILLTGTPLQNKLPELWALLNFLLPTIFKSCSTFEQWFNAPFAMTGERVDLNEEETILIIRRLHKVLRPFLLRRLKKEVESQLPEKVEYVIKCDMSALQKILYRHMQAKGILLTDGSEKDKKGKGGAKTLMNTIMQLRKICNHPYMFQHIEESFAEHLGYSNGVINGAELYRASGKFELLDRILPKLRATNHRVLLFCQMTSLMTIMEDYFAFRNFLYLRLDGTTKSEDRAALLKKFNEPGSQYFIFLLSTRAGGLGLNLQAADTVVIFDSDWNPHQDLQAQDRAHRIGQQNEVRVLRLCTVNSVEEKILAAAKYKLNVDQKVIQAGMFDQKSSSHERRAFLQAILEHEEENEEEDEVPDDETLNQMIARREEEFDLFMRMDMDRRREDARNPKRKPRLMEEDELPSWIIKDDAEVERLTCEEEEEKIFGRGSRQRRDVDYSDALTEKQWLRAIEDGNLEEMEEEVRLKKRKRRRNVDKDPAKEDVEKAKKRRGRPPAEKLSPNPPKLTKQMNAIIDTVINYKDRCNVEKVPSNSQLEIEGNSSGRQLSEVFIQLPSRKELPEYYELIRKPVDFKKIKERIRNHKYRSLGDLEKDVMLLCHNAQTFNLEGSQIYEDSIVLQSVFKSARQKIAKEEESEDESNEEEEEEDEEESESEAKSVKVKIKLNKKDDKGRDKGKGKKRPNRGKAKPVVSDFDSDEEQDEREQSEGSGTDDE

Take `Nc1nnc(-c2cc(F)ccc2O)cc1N1C2CCC1CN(c1cccc(OCCN3CCN(CC4CCN(c5ccc6c(c5)C(=O)N(C5CCC(=O)NC5=O)C6=O)CC4)CC3)c1)C2` (centres unmarked) [Example 57, 5-[4-[[4-[2-[3-[8-[3-amino-6-(5-fluoro-2-hydroxy-phenyl)pyridazin-4-yl]-3,8-diazabicyclo[3.2.1]octan-3-yl]phenoxy]ethyl]piperazin-1-yl]methyl]-1-piperidyl]-2-(2,6-dioxo-3-piperidyl)isoindoline-1,3-dione]: the DC50 came out at 406 nM and the Emax was 67%.
Take `Nc1nnc(-c2ccccc2O)cc1N1CC2CCC(C1)N2c1cccc(OCCN2CCN(C(=O)CN3CCC(c4ccc(NC5CCC(=O)NC5=O)cc4)CC3)CC2)c1` (racemic) [Example 79, rac-3-[4-[1-[2-[4-[2-[3-[3-[3-amino-6-(2-hydroxyphenyl)pyridazin-4-yl]-3,8-diazabicyclo[3.2.1]octan-8-yl]phenoxy]ethyl]piperazin-1-yl]-2-oxo-ethyl]-4-piperidyl]anilino]piperidine-2,6-dione]: the DC50 was found to be 19 nM and the maximal response (Emax) came out at 46%.
As for `Nc1nnc(-c2ccccc2O)cc1N1CC2CCC(C1)N2c1cccc(OCCN2CCN(C(=O)CCCCCCCNc3cccc4c3C(=O)N(C3CCC(=O)NC3=O)C4=O)CC2)c1` (racemic) [Example 11, rac-4-[[8-[4-[2-[3-[3-[3-amino-6-(2-hydroxyphenyl)pyridazin-4-yl]-3,8-diazabicyclo[3.2.1]octan-8-yl]phenoxy]ethyl]piperazin-1-yl]-8-oxo-octyl]amino]-2-(2,6-dioxo-3-piperidyl)isoindoline-1,3-dione], the DC50 is 146 nM and the Emax amounted to 64%.
`Nc1nnc(-c2ccccc2O)cc1N1CC2CCC(C1)N2c1cccc(OCCN2CCN(CC3CCN(c4ccc5c(c4)C(=O)N(C4CCC(=O)NC4=O)C5=O)CC3)CC2)c1` (racemic) [Example 38, rac-5-[4-[[4-[2-[3-[3-[3-amino-6-(2-hydroxyphenyl)pyridazin-4-yl]-3,8-diazabicyclo[3.2.1]octan-8-yl]phenoxy]ethyl]piperazin-1-yl]methyl]-1-piperidyl]-2-(2,6-dioxo-3-piperidyl)isoindoline-1,3-dione]: the DC50 was 20 nM and the Emax worked out at 29%.
`Nc1nnc(-c2ccccc2O)cc1N1CCC(NC(=O)CN2CCC(c3ccc(OC4CCC(=O)NC4=O)cc3)CC2)(c2ccccc2)CC1` (centres unmarked) [Example 108, N-[1-[3-amino-6-(2-hydroxyphenyl)pyridazin-4-yl]-4-phenyl-4-piperidyl]-2-[4-[4-[(2,6-dioxo-3-piperidyl)oxy]phenyl]-1-piperidyl]acetamide]: the DC50 came to 109 nM and the maximum response (Emax) was determined as 48%.
On to `Nc1nnc(-c2ccccc2O)cc1N1CCC(C(=O)N2CCC(C(=O)N3CCN(Cc4ccc5c(c4)C(=O)N(C4CCC(=O)NC4=O)C5=O)CC3)CC2)(c2ccccc2)CC1` (centres unmarked) [Example 174, 5-((4-(1-(1-(3-amino-6-(2-hydroxyphenyl)pyridazin-4-yl)-4-phenylpiperidine-4-carbonyl)piperidine-4-carbonyl)piperazin-1-yl)methyl)-2-(2,6-dioxopiperidin-3-yl)isoindoline-1,3-dione], for which the DC50 was 123 nM and the Emax turned out to be 54%.
`Nc1nnc(-c2ccccc2O)cc1N1CCC(OCC(=O)NC2CCN(C(=O)CN3CCC(c4ccc(OC5CCC(=O)NC5=O)cc4)CC3)CC2)(c2ccccc2)CC1` (centres unmarked) [Example 194, 2-[[1-[3-amino-6-(2-hydroxyphenyl)pyridazin-4-yl]-4-phenyl-4-piperidyl]oxy]-N-[1-[2-[4-[4-[(2,6-dioxo-3-piperidyl)oxy]phenyl]-1-piperidyl]acetyl]-4-piperidyl]acetamide]: the DC50 is 67 nM and the Emax amounted to 61%.
Turning to `Nc1nnc(-c2ccccc2O)cc1N1CC2CCC(C1)N2c1cccc(OCCN2CCN(C(=O)CCCCCNc3cccc4c3C(=O)N(C3CCC(=O)NC3=O)C4=O)CC2)c1` (racemic) [Example 12, rac-4-[[6-[4-[2-[3-[3-[3-amino-6-(2-hydroxyphenyl)pyridazin-4-yl]-3,8-diazabicyclo[3.2.1]octan-8-yl]phenoxy]ethyl]piperazin-1-yl]-6-oxo-hexyl]amino]-2-(2,6-dioxo-3-piperidyl)isoindoline-1,3-dione], the DC50 came out at 60 nM and the maximum response (Emax) turned out to be 55%.
For `Nc1nnc(-c2ccccc2O)cc1N1CCC(CNC(=O)COc2cccc3c2C(=O)N(C2CCC(=O)NC2=O)C3=O)(c2ccccc2)CC1` (centres unmarked) [Example 72, N-[[1-[3-amino-6-(2-hydroxyphenyl)pyridazin-4-yl]-4-phenyl-4-piperidyl]methyl]-2-[2-(2,6-dioxo-3-piperidyl)-1,3-dioxo-isoindolin-4-yl]oxy-acetamide], the DC50 came to 273 nM and the maximum response (Emax) turned out to be 62%.
With `Nc1nnc(-c2ccccc2O)cc1N1CCC2(CC1)CN(C(=O)CCCCCCCCCCCn1cc(CNc3cccc4c3C(=O)N(C3CCC(=O)NC3=O)C4=O)nn1)CCO2` (centres unmarked) [Example 7, 4-[[1-[12-[9-[3-amino-6-(2-hydroxyphenyl)pyridazin-4-yl]-1-oxa-4,9-diazaspiro[5.5]undecan-4-yl]-12-oxo-dodecyl]triazol-4-yl]methylamino]-2-(2,6-dioxo-3-piperidyl)isoindoline-1,3-dione], the DC50 came to 423 nM and the Emax worked out at 42%.
In the case of `Nc1nnc(-c2ccccc2O)cc1N1CC2CCC(C1)N2c1cccc(CN2CCN(C(=O)C3CCN(c4ccc5c(c4)C(=O)N(C4CCC(=O)NC4=O)C5=O)CC3)CC2)c1` (racemic) [Example 46, rac-5-[4-[4-[[3-[3-[3-Amino-6-(2-hydroxyphenyl)pyridazin-4-yl]-3,8-diazabicyclo[3.2.1]octan-8-yl]phenyl]methyl]piperazine-1-carbonyl]-1-piperidyl]-2-(2,6-dioxo-3-piperidyl)isoindoline-1,3-dione], the DC50 was determined as 12 nM and the Emax amounted to 24%.
As to `Nc1nnc(-c2ccccc2O)cc1N1CCC(C(=O)NCC2CCN(C(=O)CN3CCC(c4ccc(OC5CCC(=O)NC5=O)cc4)CC3)CC2)(c2ccccc2)CC1` (centres unmarked) [Example 101, 1-(3-amino-6-(2-hydroxyphenyl)pyridazin-4-yl)-N-((1-(2-(4-(4-((2,6-dioxopiperidin-3-yl)oxy)phenyl)piperidin-1-yl)acetyl)piperidin-4-yl)methyl)-4-phenylpiperidine-4-carboxamide], the DC50 came out at 102 nM and the Emax is 28%.
As for `Nc1nnc(-c2ccccc2O)cc1N1CC2CCC(C1)N2c1cccc(OCCN2CCN(C(=O)N3CCC4(CC3)CCN(c3ccc5c(c3)C(=O)N(C3CCC(=O)NC3=O)C5=O)CC4)CC2)c1` (racemic) [Example 52, rac-5-[3-[4-[2-[3-[3-[3-amino-6-(2-hydroxyphenyl)pyridazin-4-yl]-3,8-diazabicyclo[3.2.1]octan-8-yl]phenoxy]ethyl]piperazine-1-carbonyl]-3,9-diazaspiro[5.5]undecan-9-yl]-2-(2,6-dioxo-3-piperidyl)isoindoline-1,3-dione], the DC50 was found to be 37 nM and the maximal response (Emax) was found to be 52%.
